Test results: ChEMBL document CHEMBL1909514, “Imidazo[2,1-b]thiazole guanylhydrazones as RSK2 inhibitors” (Eur J Med Chem, 2011)

Key:
[1] = target: Serine/threonine-protein kinase Chk2 (Homo sapiens, UniProt O96017)
[2] = target: T1, Serine/threonine-protein kinase Chk1 (Homo sapiens, UniProt O14757)
T1 sequence (O14757 whole entry): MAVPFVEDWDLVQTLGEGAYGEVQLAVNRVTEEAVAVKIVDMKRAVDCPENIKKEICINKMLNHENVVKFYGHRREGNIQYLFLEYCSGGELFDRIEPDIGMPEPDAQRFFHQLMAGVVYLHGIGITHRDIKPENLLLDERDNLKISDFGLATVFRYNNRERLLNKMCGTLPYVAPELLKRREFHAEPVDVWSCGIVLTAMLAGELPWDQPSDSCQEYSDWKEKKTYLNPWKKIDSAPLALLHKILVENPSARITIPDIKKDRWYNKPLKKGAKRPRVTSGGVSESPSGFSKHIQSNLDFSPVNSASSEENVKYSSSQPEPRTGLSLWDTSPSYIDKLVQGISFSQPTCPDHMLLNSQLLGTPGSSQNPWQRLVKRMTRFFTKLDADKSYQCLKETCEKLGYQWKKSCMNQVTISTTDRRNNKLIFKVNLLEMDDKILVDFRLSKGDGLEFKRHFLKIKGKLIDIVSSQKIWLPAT
Description: Inhibition of CHK1 assessed as inhibition of substrate phosphorylation using fluorescent peptide substrate by microplate reader assay

CCRF-CEM = test: Growth inhibition of human CCRF-CEM cells after 48 hrs by SRB assay; format: functional
MOLT-4 = test: Growth inhibition of human MOLT4 cells after 48 hrs by SRB assay; format: functional; conditions: MOLT-4, 48 h
BT-549 = test: Growth inhibition of human BT549 cells after 48 hrs by SRB assay; format: functional; conditions: BT-549, 48 h
MCF7 = test: Growth inhibition of human MCF7 cells after 48 hrs by SRB assay; format: functional; conditions: MCF7, 48 h
EKVX = test: Growth inhibition of human EKVX cells after 48 hrs by SRB assay; format: functional
SK-OV-3 = test: Growth inhibition of human SKOV3 cells after 48 hrs by SRB assay; format: functional; conditions: SK-OV-3, 48 h
NCI-H460 = test: Growth inhibition of human NCI-H460 cells after 48 hrs by SRB assay; format: functional; conditions: NCI-H460, 48 h
A549 = test: Growth inhibition of human A549 cells after 48 hrs by SRB assay; format: functional; conditions: A549, 48 h
PC-3 = test: Growth inhibition of human PC3 cells after 48 hrs by SRB assay; format: functional; conditions: PC-3, 48 h
SN12C = test: Growth inhibition of human SN12C cells after 48 hrs by SRB assay; format: functional
HL-60(TB) = test: Growth inhibition of human HL-60(TB) cells after 48 hrs by SRB assay; format: functional; conditions: HL-60, 48 h
OVCAR-5 = test: Growth inhibition of human OVCAR5 cells after 48 hrs by SRB assay; format: functional; conditions: OVCAR-5, 48 h
[3] = target: Ribosomal protein S6 kinase alpha-3 (Homo sapiens, UniProt P51812)
SW-620 = test: Growth inhibition of human SW620 cells after 48 hrs by SRB assay; format: functional; conditions: SW-620, 48 h
ACHN = test: Growth inhibition of human ACHN cells after 48 hrs by SRB assay; format: functional
HT-29 = test: Growth inhibition of human HT-29 cells after 48 hrs by SRB assay; format: functional; conditions: HT-29, 48 h
CAKI-1 = test: Growth inhibition of human Caki1 cells after 48 hrs by SRB assay; format: functional; conditions: CAKI-1, 48 h
DU-145 = test: Growth inhibition of human DU145 cells after 48 hrs by SRB assay; format: functional; conditions: DU-145, 48 h
COLO 205 = test: Growth inhibition of human COLO205 cells after 48 hrs by SRB assay; format: functional; conditions: COLO 205, 48 h
NCI-H322M = test: Growth inhibition of human NCI-H322M cells after 48 hrs by SRB assay; format: functional
K562 = test: Growth inhibition of human K562 cells after 48 hrs by SRB assay; format: functional; conditions: K562, 48 h
OVCAR-3 = test: Growth inhibition of human OVCAR3 cells after 48 hrs by SRB assay; format: functional; conditions: OVCAR-3, 48 h
HOP-92 = test: Growth inhibition of human HOP92 cells after 48 hrs by SRB assay; format: functional; conditions: HOP-92, 48 h
SNB-19 = test: Growth inhibition of human SNB19 cells after 48 hrs by SRB assay; format: functional; conditions: SNB-19, 48 h
A498 = test: Growth inhibition of human A498 cells after 48 hrs by SRB assay; format: functional; conditions: A498, 48 h
NCI/ADR-RES = test: Growth inhibition of human NCI/ADR-RES cells after 48 hrs by SRB assay; format: functional
MDA-MB-435 = test: Growth inhibition of human MDA-MB-435 cells after 48 hrs by SRB assay; format: functional; conditions: MDA-MB-435, 48 h
NCI-H226 = test: Growth inhibition of human NCI-H226 cells after 48 hrs by SRB assay; format: functional; conditions: NCI-H226, 48 h
RXF 393 = test: Growth inhibition of human RXF393 cells after 48 hrs by SRB assay; format: functional; conditions: RXF 393, 48 h
[4] = read-out: pLC50 (the source's name) (converted)

Ribosomal protein S6 kinase alpha-3, sequence (P51812 whole entry): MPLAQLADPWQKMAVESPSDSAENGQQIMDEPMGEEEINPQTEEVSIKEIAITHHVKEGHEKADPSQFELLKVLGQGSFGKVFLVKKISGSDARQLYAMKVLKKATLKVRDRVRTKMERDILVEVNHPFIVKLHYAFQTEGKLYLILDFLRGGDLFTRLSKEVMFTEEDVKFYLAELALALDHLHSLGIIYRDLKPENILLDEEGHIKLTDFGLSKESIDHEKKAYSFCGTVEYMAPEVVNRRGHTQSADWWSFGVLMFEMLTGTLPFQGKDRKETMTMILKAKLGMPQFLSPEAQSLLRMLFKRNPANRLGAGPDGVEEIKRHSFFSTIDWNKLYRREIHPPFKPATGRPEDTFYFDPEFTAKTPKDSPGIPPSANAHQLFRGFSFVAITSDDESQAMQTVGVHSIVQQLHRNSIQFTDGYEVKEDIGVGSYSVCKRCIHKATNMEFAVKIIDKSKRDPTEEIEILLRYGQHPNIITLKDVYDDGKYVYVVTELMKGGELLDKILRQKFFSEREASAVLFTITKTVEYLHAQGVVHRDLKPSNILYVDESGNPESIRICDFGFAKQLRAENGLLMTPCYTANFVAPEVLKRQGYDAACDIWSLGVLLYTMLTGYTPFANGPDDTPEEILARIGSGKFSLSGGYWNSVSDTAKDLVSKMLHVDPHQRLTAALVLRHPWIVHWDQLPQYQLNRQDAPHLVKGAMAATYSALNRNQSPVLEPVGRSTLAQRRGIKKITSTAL
Serine/threonine-protein kinase Chk2, sequence (O96017 whole entry): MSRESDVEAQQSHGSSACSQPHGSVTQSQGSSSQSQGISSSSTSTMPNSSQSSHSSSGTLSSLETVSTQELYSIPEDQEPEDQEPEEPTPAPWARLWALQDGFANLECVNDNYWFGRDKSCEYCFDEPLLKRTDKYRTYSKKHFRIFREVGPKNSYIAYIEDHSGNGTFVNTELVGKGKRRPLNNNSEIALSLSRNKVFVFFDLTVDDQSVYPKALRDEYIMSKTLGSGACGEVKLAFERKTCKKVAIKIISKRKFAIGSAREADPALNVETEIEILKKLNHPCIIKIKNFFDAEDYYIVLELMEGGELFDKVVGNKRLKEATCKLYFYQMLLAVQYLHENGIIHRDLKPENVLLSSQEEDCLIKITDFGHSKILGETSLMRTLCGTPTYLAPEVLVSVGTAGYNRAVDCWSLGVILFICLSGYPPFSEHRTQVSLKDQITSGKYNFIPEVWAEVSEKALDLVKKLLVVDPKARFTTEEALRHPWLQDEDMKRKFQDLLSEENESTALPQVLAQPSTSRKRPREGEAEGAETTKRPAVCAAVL

N=C(N)N/N=C\c1c(-c2ccc([N+](=O)[O-])cc2)nc2sc(Br)cn12
IC50 [1]: 1960 nM
IC50 [2]: > 100000 nM
GI50 (CCRF-CEM): 102 nM
CC50 (CCRF-CEM; [4]): > 100000 nM
GI50 (MOLT-4): 195 nM
GI50 (BT-549): 186 nM
CC50 (BT-549; [4]): 7240 nM
TGI (BT-549; read-out: pTGI (converted)): 3630 nM
GI50 (MCF7): 162 nM
TGI (MCF7; read-out: pTGI (converted)): 324 nM
GI50 (EKVX): 1070 nM
CC50 (EKVX; [4]): 7410 nM
TGI (EKVX; read-out: pTGI (converted)): 4470 nM
GI50 (SK-OV-3): 148 nM
CC50 (SK-OV-3; [4]): 5620 nM
TGI (SK-OV-3; read-out: pTGI (converted)): 4470 nM
GI50 (NCI-H460): 229 nM
CC50 (NCI-H460; [4]): 1820 nM
TGI (NCI-H460; read-out: pTGI (converted)): 501 nM
GI50 (A549): 182 nM
CC50 (A549; [4]): 6610 nM
TGI (A549; read-out: pTGI (converted)): 347 nM
GI50 (PC-3): 186 nM
CC50 (PC-3; [4]): 759 nM
TGI (PC-3; read-out: pTGI (converted)): 380 nM
GI50 (SN12C): 617 nM
CC50 (SN12C; [4]): 5890 nM
TGI (SN12C; read-out: pTGI (converted)): 2820 nM
GI50 (HL-60(TB)): 219 nM
GI50 (OVCAR-5): 186 nM
CC50 (OVCAR-5; [4]): 851 nM
TGI (OVCAR-5; read-out: pTGI (converted)): 398 nM
IC50 [3]: 607 nM
GI50 (SW-620): 182 nM
CC50 (SW-620; [4]): 891 nM
TGI (SW-620; read-out: pTGI (converted)): 407 nM
GI50 (ACHN): 295 nM
CC50 (ACHN; [4]): 5370 nM
TGI (ACHN; read-out: pTGI (converted)): 871 nM
GI50 (HT-29): 178 nM
CC50 (HT-29; [4]): 646 nM
TGI (HT-29; read-out: pTGI (converted)): 339 nM
GI50 (CAKI-1): 234 nM
CC50 (CAKI-1; [4]): 4790 nM
TGI (CAKI-1; read-out: pTGI (converted)): 1070 nM
GI50 (DU-145): 200 nM
CC50 (DU-145; [4]): 813 nM
TGI (DU-145; read-out: pTGI (converted)): 398 nM
GI50 (COLO 205): 166 nM
CC50 (COLO 205; [4]): 646 nM
TGI (COLO 205; read-out: pTGI (converted)): 331 nM
GI50 (NCI-H322M): 309 nM
CC50 (NCI-H322M; [4]): 3980 nM
TGI (NCI-H322M; read-out: pTGI (converted)): 4170 nM
GI50 (K562): 40.7 nM
GI50 (OVCAR-3): 204 nM
CC50 (OVCAR-3; [4]): 724 nM
TGI (OVCAR-3; read-out: pTGI (converted)): 380 nM
GI50 (HOP-92): 676 nM
CC50 (HOP-92; [4]): 5130 nM
TGI (HOP-92; read-out: pTGI (converted)): 2630 nM
GI50 (SNB-19): 380 nM
CC50 (SNB-19; [4]): 5010 nM
TGI (SNB-19; read-out: pTGI (converted)): 4790 nM
GI50 (A498): 1580 nM
CC50 (A498; [4]): 6030 nM
TGI (A498; read-out: pTGI (converted)): 3090 nM
GI50 (NCI/ADR-RES): 219 nM
CC50 (NCI/ADR-RES; [4]): 3550 nM
TGI (NCI/ADR-RES; read-out: pTGI (converted)): 891 nM
GI50 (MDA-MB-435): 251 nM
CC50 (MDA-MB-435; [4]): 5370 nM
TGI (MDA-MB-435; read-out: pTGI (converted)): 7410 nM
GI50 (NCI-H226): 1860 nM
CC50 (NCI-H226; [4]): > 100000 nM
TGI (NCI-H226; read-out: pTGI (converted)): 4470 nM
GI50 (RXF 393): 186 nM
CC50 (RXF 393; [4]): 759 nM
TGI (RXF 393; read-out: pTGI (converted)): 372 nM
